Entries after “also recorded” stand apart in the source; their conditions may differ.
What was measured:
endogenous TFEB = assay: TFEB nuclear translocation, immunocytochemistry high-content imaging; type: cell-based; details: for TFEB %: PKIS2 primary screening
SH-SY5Y cells [1] = details: for DQ Intensity / DQ Spot: PKIS2 primary screening; for DQ Intensity: DQ Red BSA intensity; for DQ Spot: DQ Red BSA spot count
Source text: The PKIS2 Library was supplied by The Structural Genomics Consortium at the University of North Carolina at Chapel Hill.

SH-SY5Y cells [2] = assay: AK (adenylate kinase) release ToxiLight cytotoxicity assay; details: for AK: PKIS2 primary screening
Procedure: Total cell lysis with 5 µL 5% Triton-X 100 (Sigma-Aldrich, T8787) is used as a positive control for the assay and toxicity is expressed as a percentage of luminescence under DMSO conditions.

SH-SY5Y cells [3] = assay: Chemotype enrichment analysis of PKIS2 primary screen hit categories; details: PKIS2 primary screening, hit category
SH-SY5Y cells [4] = assay: Nuclear count from microscopy images (cellular growth and toxicity); details: PKIS2 primary screening
endogenous TFE3 = assay: TFE3 nuclear translocation, immunocytochemistry high-content imaging; type: cell-based; details: for TFE3 %: PKIS2 primary screening

Structure (SMILES) | TFEB % (endogenous TFEB) | DQ Intensity (SH-SY5Y cells [1]) | DQ Spot (SH-SY5Y cells [1]) | AK (SH-SY5Y cells [2]) | Outcome (SH-SY5Y cells [3]) | Nuclear Count (SH-SY5Y cells [4]) | TFE3 % (endogenous TFE3) | TFEB translocation (in words) (endogenous TFEB; SH-SY5Y, 24 h treatment) | DQ Red BSA spot count / active lysosome count (in words) (SH-SY5Y cells [1]; SH-SY5Y, 24 h treatment) | Cellular toxicity (AK release and nuclear count, in words) (SH-SY5Y cells [2]; SH-SY5Y, 24 h treatment) | TFE3 translocation (in words) (endogenous TFE3; SH-SY5Y, 24 h treatment)
CN1C(=O)C(Nc2ccccc2)=C(c2ccccc2)C1=O [UNC10225242A] | 6.14% | 102.22 | 99.91 | 287.85 | TOXIC | 117.96 | 13.56% |  |  |  | 
CC(C)NCC(Cc1ccccc1)NC(=O)c1cc(Br)c(-c2ccnc3[nH]ccc23)s1.Cl.Cl (stereo not shown) [UNC10225078A] | 25.83% | 114.59 | 48.43 | 109.26 | LYSO TOXIC | 95.97 | 47.42% |  |  |  | 
COc1cc(Nc2ccnc3cc(-c4ccncc4)ccc23)cc(OC)c1OC.Cl [UNC10225049A] | 12.84% | 164.74 | 83.88 | 108.07 | DQ Only | 54.75 | 16.25% |  |  |  | 
Cc1ccc(C(=O)Nc2ccc(Nc3ccnc4cc(-c5ccccn5)ccc34)cc2O)cc1.Cl [UNC10225182A] | 30.37% | 19.25 | 15.81 | 82.72 | LYSO TOXIC | 71.22 | 92.07% |  |  |  | 
Fc1cc(Cl)ccc1Nc1ccnc2cc(I)ccc12 [UNC10225189A] | 3.86% | 39.14 | 61.91 | 112.41 | LYSO TOXIC | 145.49 | 9.39% |  |  |  | 
COc1cc2nccc(Nc3ccc(Oc4ccccc4)cc3)c2cc1OC.Cl [UNC10225483A] | 23.88% | 58.49 | 52.29 | 74.22 | LYSO TOXIC | 95.56 | 50.12% |  |  |  | 
Cl.Oc1cccc(Nc2ccnc3cc(-c4ccncc4)ccc23)c1 [UNC10225467A] | 5.92% | 34.95 | 51.42 | 125.78 | LYSO TOXIC | 88.58 | 10.65% |  |  |  | 
CC(C)(C)c1ccc2nccc(Nc3cccc(O)c3)c2c1 [UNC10225361A] | 10.76% | 97.55 | 54.23 | 101.00 | LYSO TOXIC | 71.73 | 26.88% |  |  |  | 
CC(=O)Nc1ccc(COc2ccc(Nc3ccnc4cc(-c5ccccn5)ccc34)cc2)cc1.Cl [UNC10225390A] | 19.19% | 42.39 | 42.67 | 71.40 | LYSO TOXIC | 89.28 | 50.24% |  |  |  | 
N#Cc1cnc2cc(-c3cnc(CNCCN4CCOCC4)s3)ccc2c1Nc1ccc(Oc2ccccc2)cc1 [UNC10225079A] | 5.31% | 48.97 | 51.66 | 71.03 | LYSO TOXIC | 110.49 | 6.45% |  |  |  | 
Cl.c1ccc(-c2ccc3c(Nc4ccc5[nH]ncc5c4)ccnc3c2)nc1 [UNC10225007A] | 7.66% | 77.57 | 57.65 | 108.57 | LYSO TOXIC | 105.78 | 16.03% |  |  |  | 
CCNCC(Cc1ccccc1)NC(=O)c1cc(Br)c(-c2ccnc3[nH]ccc23)s1.Cl.Cl (stereo not shown) [UNC10225436A] | 20.72% | 185.61 | 102.66 | 108.80 | DQ / TFEB/TFE3 | 80.17 | 35.73% |  |  |  | 
CN1CCN(Cc2cccc(-c3ccc4c(Nc5ccc(Oc6ccccc6)cc5)ccnc4c3)c2)CC1 [UNC10225484A, reference compound] | 9.01% | 129.44 | 68.80 | 84.86 | LYSO TOXIC | 88.62 | 42.01% | some TFEB and TFE3 translocation; also recorded: modest TFEB and 3 translocation at 2 µM | reduction in active lysosome spots; also recorded: correlated drop in DQ Red BSA spot count | no indication of cellular toxicity | some TFEB and TFE3 translocation; also recorded: modest TFEB and 3 translocation at 2 µM
CN(C)CCOc1ccc(-c2cc(-c3ccc(Cl)c(O)c3)c(-c3ccncc3)[nH]2)cc1.Cl.Cl [UNC10225395A] | 15.65% | 71.39 | 40.46 | 117.96 | LYSO TOXIC | 86.70 | 46.41% |  |  |  | 
O=C(c1ccc(-c2cc(-c3c[nH]nc3-c3ccccn3)ccn2)cc1)N1CCOCC1 [UNC10225421A] | 4.79% | 150.15 | 98.06 | 76.85 | DQ Only | 121.31 | 13.41% |  |  |  | 

— paper PMC9851200, “Multiparameter phenotypic screening for endogenous TFEB and TFE3 translocation identifies novel chemical series modulating lysosome function” (Autophagy, 2022)
